According to patent publication US10849901B2, “Arf6 inhibitors and methods of synthesis and use thereof” (Navigen, Inc., priority 2014, dated 2020):
Where two headings read alike, the source gives them in different places.

Biological target: Arf6 (Homo sapiens (Human), UniProt P62330)
Experiment: Fluorometric assay for Arf6 nucleotide exchange catalyzed by ARNO Sec7 domain (GTP-BODIPY FL)
Format: biochemical
Experimental: FIGS. 1A-1D: Fluorometric high throughput assay for Arf6 nucleotide exchange catalyzed by ARNO Sec7 domain. FIG. 1A: Principle of the assay. FIG. 1B: SDS-PAGE analysis of N-terminally His-tagged Arf6(14-175) and ARNO(50-255) purified from the E. coli cultures by immobilized metal affinity chromatography. FIG. 1C: Correlation between signal intensity and ARNO concentration. The assay was performed using 50 mM Tris-HCl, pH 7.5, 1 mM MgCl2, 0.01% TX-100, 1% DMSO, 50 nM GTP-BODIPY FL, supplemented with ARNO-Sec7 at indicated concentrations in the absence or in the presence of 0.2 μM Arf6-GDP. Fluorescence intensities were monitored using a Synergy 4 plate reader (BioTek) at the excitation and emission wavelengths of 490 nm and 520 nm, respectively. FIG. 1D: Time course of apparent inhibitory potency of GDP. The assay was performed in automated mode using a Matrix PlateMate liquid handler.
The primary biochemical assay uses a fluorometric assay for monitoring the replacement of bound nucleotide with a fluorogenic GTP derivative bearing a BODIPY FL moiety, allowing for the identification of compounds that can inhibit this exchange (see FIG. 1A). In certain embodiments, the methods disclosed herein may exploit the reduction of intramolecular fluorescence quenching of the modified nucleotide upon its binding to the target protein (see, e.g., McEwen D P, Gee K R, Kang H C, Neubig R R. Fluorescent BODIPY-GTP analogs: real-time measurement of nucleotide binding to G proteins. Anal Biochem. 2001 Apr. 1; 291(1): 109-17).
The fluorometric assay formatted for 96-well microtiter plates has passed quality control based on the following criteria: i) S/B ratio of 4-fold and Z′-factor of 0.61; ii) linear correlation between signal intensity and ARNO concentration (see FIG. 1C); iii) sufficiently reproducible inhibitory effects of the reference inhibitor GDP for assay durations up to at least 1 hour (see FIG. 1D); and iv) lack of apparent fluorescence quenchers among 400 randomly selected compounds. The assay is amenable to automation with a throughput of approximately 5,000 data points per 8 hours.

[1] = 20 nM Arf6 assay, read-out: IC50 (μM) 20 nM Arf6
[2] = 200 nM Arf6 assay, read-out: IC50 (μM) 200 nM Arf6

Arf6, sequence (P62330 14-175): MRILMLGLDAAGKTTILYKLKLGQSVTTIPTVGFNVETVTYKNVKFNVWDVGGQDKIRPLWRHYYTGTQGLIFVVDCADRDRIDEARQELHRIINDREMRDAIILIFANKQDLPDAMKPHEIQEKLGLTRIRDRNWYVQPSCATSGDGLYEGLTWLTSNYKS

SMILES	IC50 [1]	IC50 [2]
O=c1cc(-c2cccc(-c3cccnc3)c2)[nH]c2c(-c3ccc(Cl)c(Cl)c3)c(C(F)(F)F)nn12 [Compound 1]	0.25 µM	–
O=c1cc(-c2cccc(Oc3cc(F)cc(F)c3)c2)[nH]c2c(-c3ccc(Cl)c(Cl)c3)c(C(F)(F)F)nn12 [Compound 2]	0.33 µM	–
O=C(Nc1ccc(C2=Nc3c(-c4ccc(Cl)cc4)c(C(F)(F)F)nn3C(=O)C2)cc1)c1ccccc1 [Compound 3]	0.5 µM	–
O=c1cc(-c2ccc([N+](=O)[O-])cc2)[nH]c2c(-c3ccc(Cl)c(Cl)c3)c(-c3ccccc3)nn12 [Compound 5]	0.58 µM	–
O=c1cc(-c2ccc(Oc3ccccc3)cc2)[nH]c2c(-c3ccc(Cl)c(Cl)c3)c(C(F)(F)F)nn12 [Compound 6]	0.66 µM	1.1 µM
O=c1cc(-c2ccc([N+](=O)[O-])cc2)[nH]c2c(-c3ccc(Cl)c(Cl)c3)c(C(F)(F)F)nn12 [Compound 7]	0.66 µM	–
O=c1cc(-c2ccc([N+](=O)[O-])cc2)[nH]c2c(-c3ccc(Cl)c(C(F)(F)F)c3)c(C(F)(F)F)nn12 [Compound 8]	0.67 µM	–
O=c1cc(Cc2ccccc2)[nH]c2c(-c3ccc(Cl)c(Cl)c3)c(C(F)(F)F)nn12 [Compound 9]	0.84 µM	1.6 µM
O=c1c(Cl)c(-c2ccc([N+](=O)[O-])cc2)[nH]c2c(-c3ccc(Cl)cc3)c(C(F)(F)F)nn12 [Compound 10]	0.88 µM	–
O=c1cc(-c2ccc([N+](=O)[O-])cc2)[nH]c2c(-c3ccc(Cl)cc3)c(-c3ccccc3)nn12 [Compound 11]	0.96 µM	–
Cc1ccc(-c2cccc(-c3cc(=O)n4nc(C(F)(F)F)c(-c5ccc(Cl)cc5)c4[nH]3)c2)cn1 [Compound 12]	0.96 µM	–
O=c1c(Cl)c(-c2ccccc2)[nH]c2c(-c3ccc(Cl)cc3)c(C(F)(F)F)nn12 [Compound 13]	0.98 µM	–
O=c1cc(-c2cccc(Oc3ccccc3)c2)[nH]c2c(-c3ccc(Cl)c(Cl)c3)c(C3CC3)nn12 [Compound 14]	1 µM	–
O=c1cc(-c2ccc(Br)cc2)[nH]c2c(-c3ccc(Cl)cc3)c(C(F)(F)F)nn12 [Compound 15]	1.1 µM	–
CCC(=O)Nc1ccc(-c2cc(=O)n3nc(C(F)(F)F)c(-c4ccc(Cl)cc4)c3[nH]2)cc1 [Compound 16]	1 µM	–
O=c1cc(-c2ccc(-c3cccnc3)cc2)[nH]c2c(-c3ccc(Cl)cc3)c(C(F)(F)F)nn12 [Compound 17]	1.1 µM	–
Cc1nn2c(=O)cc(-c3ccc([N+](=O)[O-])cc3)[nH]c2c1-c1ccc(-c2ccccc2)cc1 [Compound 18]	1.1 µM	–
CN(C)c1ccc(-c2cccc(-c3cc(=O)n4nc(C(F)(F)F)c(-c5ccc(Cl)cc5)c4[nH]3)c2)cn1 [Compound 19]	1.1 µM	–
O=c1cc(-c2ccc([N+](=O)[O-])cc2)[nH]c2c(-c3cccc4ccccc34)c(Cc3ccccc3)nn12 [Compound 20]	1.1 µM	–
O=c1cc(-c2cccc([N+](=O)[O-])c2)[nH]c2c(-c3ccc(Cl)cc3)c(C(F)(F)F)nn12 [Compound 21]	1.2 µM	–

SMILES	IC50 [1]	IC50 [2]
O=c1cc(-c2ccc([N+](=O)[O-])cc2)[nH]c2c(-c3ccc(Cl)c(Cl)c3)c(C3CC3)nn12 [Compound 22]	1.2 µM	–
O=c1cc(-c2ccc([N+](=O)[O-])cc2)[nH]c2c(-c3ccc(Cl)c(Cl)c3)c(Cc3ccccc3)nn12 [Compound 23]	1.2 µM	–
O=c1c(Cl)c(-c2ccc([N+](=O)[O-])cc2)[nH]c2c(-c3ccc(Cl)cc3)c(Cc3ccccc3)nn12 [Compound 24, 2-benzyl-6-chloro-3-(4-chlorophenyl)-5-(4-nitrophenyl)-4H-pyrazolo[1,5-a]pyrimidin-7-one]	1.3 µM	1.4 µM
O=c1cc(-c2ccc(Cl)cc2)[nH]c2c(-c3ccc(Cl)cc3)c(C(F)(F)F)nn12 [Compound 25]	1.4 µM	–
COc1cc(-c2c(C)nn3c(=O)cc(-c4ccc([N+](=O)[O-])cc4)[nH]c23)ccc1Cl [Compound 26]	1.4 µM	–
O=c1cc(-c2ccc([N+](=O)[O-])cc2)[nH]c2c(-c3ccc(Cl)c(Cl)c3)c(C3CC3)nn12 [Compound 27]	1.4 µM	–
CC(c1ccccc1)c1nn2c(=O)cc(-c3ccc([N+](=O)[O-])cc3)[nH]c2c1-c1ccc(Cl)cc1 (centres unmarked) [Compound 28]	1.4 µM	–
O=c1cc(-c2ccccc2)[nH]c2c(-c3ccc(Cl)cc3)c(Cc3ccccc3)nn12 [Compound 29]	1.5 µM	3.3 µM
Cc1nn2c(=O)cc(-c3ccc([N+](=O)[O-])cc3)[nH]c2c1-c1ccc(Oc2ccccc2)cc1 [Compound 30]	1.5 µM	–
COc1ccc(-c2cccc(-c3cc(=O)n4nc(C(F)(F)F)c(-c5ccc(Cl)cc5)c4[nH]3)c2)cn1 [Compound 31]	1.5 µM	–
CC(C)(C)c1nn2c(=O)cc(-c3ccccc3C#N)[nH]c2c1-c1ccc(Cl)cc1 [Compound 32]	1.5 µM	–
O=c1cc(-c2ccc([N+](=O)[O-])cc2)[nH]c2c(-c3ccc(Cl)cc3)c(C(F)(F)F)nn12 [Compound 33]	1.6 µM	2.6 µM
O=c1cc(-c2cccc(Br)c2)[nH]c2c(-c3ccc(Cl)cc3)c(C(F)(F)F)nn12 [Compound 34]	1.6 µM	–
CC(C)CC(=O)Nc1ccc(-c2cc(=O)n3nc(C(F)(F)F)c(-c4ccc(Cl)cc4)c3[nH]2)cc1 [Compound 35]	1.7 µM	–
Cc1nn2c(=O)cc(-c3ccc([N+](=O)[O-])cc3)[nH]c2c1-c1ccc(Cl)cc1Cl [Compound 36]	1.7 µM	–
O=c1cc(-c2ccc([N+](=O)[O-])cc2O)[nH]c2c(-c3ccc(Cl)cc3)c(Cc3ccccc3)nn12 [Compound 37]	–	1.7 µM
Cc1nn2c(=O)cc(-c3ccc([N+](=O)[O-])cc3)[nH]c2c1-c1ccc(Cl)cc1 [Compound 39]	1.9 µM	4.7 µM
N#Cc1ccc(-c2cc(=O)n3nc(C(F)(F)F)c(-c4ccc(Cl)cc4)c3[nH]2)cc1 [Compound 40]	1.9 µM	–
Cc1nn2c(=O)cc(-c3ccc(NC(=O)Cc4ccccc4)cc3)[nH]c2c1-c1ccc(Cl)cc1 [Compound 41]	1.9 µM	–
Cc1nn2c(=O)cc(-c3ccc(NC(=O)NCc4ccccc4)cc3)[nH]c2c1-c1ccc(Cl)cc1 [Compound 42]	2.1 µM	–

SMILES	IC50 [1]	IC50 [2]
Cc1nn2c(=O)cc(-c3ccc([N+](=O)[O-])cc3)[nH]c2c1-c1cc(Cl)cc(Cl)c1 [Compound 43]	2.1 µM	–
CC(C)(C)c1nn2c(=O)cc(-c3cccc(C#N)c3)[nH]c2c1-c1ccc(Cl)cc1 [Compound 44]	2.2 µM	–
CC(c1ccccc1)c1cc(=O)n2nc(C(F)(F)F)c(-c3ccc(Cl)cc3)c2[nH]1 (centres unmarked) [Compound 45]	2.3 µM	–
O=c1cc(-c2ccc([N+](=O)[O-])cc2)[nH]c2c(-c3ccc(Cl)cc3)c(Cc3ccncc3)nn12 [Compound 46]	2.4 µM	3.2 µM
O=c1cc(-c2ccc(-c3ccncc3)cc2)[nH]c2c(-c3ccc(Cl)cc3)c(C(F)(F)F)nn12 [Compound 47]	2.4 µM	–
Cc1nn2c(=O)cc(-c3ccc(NC(=O)c4ccccc4)cc3)[nH]c2c1-c1ccc(Cl)cc1 [Compound 48]	2.4 µM	–
O=c1c(Cl)c(-c2ccccc2)[nH]c2c(-c3ccc(Cl)cc3)c(Cc3ccccc3)nn12 [Compound 49]	2.5 µM	–
CC(C)CC(=O)Nc1cccc(-c2cc(=O)n3nc(C(F)(F)F)c(-c4ccc(Cl)cc4)c3[nH]2)c1 [Compound 50]	2.5 µM	–
Cc1nn2c(=O)cc(-c3ccc([N+](=O)[O-])cc3)[nH]c2c1-c1cccc2ccccc12 [Compound 51]	2.7 µM	4.9 µM
O=c1cc(-c2ccc([N+](=O)[O-])cc2)[nH]c2c(-c3ccc(Cl)cc3)c(Cc3cccnc3)nn12 [Compound 52]	2.8 µM	4.8 µM
Cc1nn2c(=O)cc(-c3cccc(-c4cccnc4)c3)[nH]c2c1-c1ccc(Cl)cc1 [Compound 53]	3 µM	–
CSc1ccc(Cc2nn3c(=O)cc(-c4ccc([N+](=O)[O-])cc4)[nH]c3c2-c2ccc(Cl)cc2)cc1 [Compound 54]	3 µM	–
COc1ccc(-c2c(Cc3ccccc3)nn3c(=O)cc(-c4ccc([N+](=O)[O-])cc4)[nH]c23)cc1 [Compound 55]	–	3.1 µM
CN(C)C(=O)c1ccc(-c2cc(=O)n3nc(Cc4ccccc4)c(-c4ccc(Cl)cc4)c3[nH]2)cc1 [Compound 56]	3.2 µM	2.6 µM
Cc1nn2c(=O)cc(-c3ccc([N+](=O)[O-])cc3)[nH]c2c1-c1cccc(Cl)c1Cl [Compound 57]	3.2 µM	–
N#Cc1ccc(-c2cc(=O)n3nc(C4CC4)c(-c4ccc(Cl)cc4)c3[nH]2)cc1 [Compound 58]	3.2 µM	–
O=c1cc(-c2ccc([N+](=O)[O-])cc2)[nH]c2c(-c3ccccc3)c(Cc3ccccc3)nn12 [Compound 59]	–	3.2 µM
O=c1cc(-c2ccc([N+](=O)[O-])cc2)[nH]c2c(-c3ccc(Cl)cc3)cnn12 [Compound 60]	–	3.2 µM
